From a melting point compilation (Tetko et al.)

Row | Compound | melting point
1 | c1ccc2oc(-c3nn[nH]n3)cc2c1 | 212 to 214 °C
2 | O=C(O)C1(NS(=O)(=O)c2cccc(F)c2)CCCCC1 | 213 to 215 °C
3 | CC(C)C(=O)Nc1ccc(N)cc1 | 74 to 76 °C
4 | CC1C(=O)NC(=O)N1c1ccc(F)cc1 (stereo not drawn) | 187 to 189 °C
5 | COc1cc2cc(C(=O)O)[nH]c2cc1OC | 199 to 201 °C
6 | Cc1sc2nc(-c3ccccc3)nc(Cl)c2c1C | 157 to 159 °C
7 | FC(F)(F)CNc1ccccn1 | 70 to 72 °C
8 | O=C(O)c1ccc(COCC(F)(F)F)cc1 | 149 to 151 °C
9 | COC(=O)c1cc(Cl)ccc1S(=O)(=O)Cl | 74 to 76 °C
10 | CCC(Nc1ccccc1)C(=O)O (stereo not drawn) | 139 to 141 °C
11 | O=C(O)c1cc2c(F)ccc(F)c2[nH]1 | 229 to 231 °C
12 | CCC1CSC(Nc2ccc(Cl)c(Cl)c2)=N1 (stereo not drawn) | 107 to 109 °C
13 | COC(C)(C)C(N)=NO | 104 to 106 °C
14 | CC(C)(C)OC(=O)Nc1csc(Br)n1 | 104 to 106 °C
15 | Cc1ccc2[nH]c(C(=O)O)cc2c1 | 218 to 220 °C
16 | Cc1nc2cc(F)cc(C(=O)O)c2nc1C | 226 to 228 °C
17 | Nc1n[nH]c(=O)[nH]c1=O | 334 to 336 °C
18 | CC(C)C(=O)Nc1cccc(N)c1 | 119 to 121 °C
19 | COC(=O)c1cc(S(=O)(=O)Cl)ccc1O | 81 to 83 °C
20 | O=C(O)c1cc(-c2ccc(-c3ccccc3)cc2)nc2ccccc12 | 289 to 291 °C
21 | CCCNC(=O)c1cccc(C(=O)O)c1 | 229 to 231 °C
22 | O=C1Nc2c(Br)cc(Cl)cc2C1=O | 245 to 247 °C
23 | Nc1ccccc1-c1cc(F)c(F)c(F)c1 | 64 to 66 °C
24 | Cc1[nH]oc(=N)c1-c1cccc(Cl)c1 | 148 to 150 °C

Row | Compound | melting point
25 | Nc1ccccc1C(=O)NCC(F)(F)F | 125 to 130 °C
26 | O=C(NNc1ccccc1)Nc1ccccc1 | 178 to 180 °C
27 | C=CCNC(=O)c1cccc(C#N)c1 | 79 to 81 °C
28 | CNc1cn[nH]c(=O)c1 | 279 to 281 °C
29 | CN(CC(=O)O)c1ncnc2nc[nH]c12 | 237 to 239 °C
30 | COc1ccccc1NS(=O)(=O)c1ccc2oc(N)nc2c1 | 210 to 212 °C
31 | CC(C)(C)OC(=O)NCCCCCCC(=O)O | 44 to 46 °C
32 | CC(N)c1ccc(OCC(=O)NC2CC2)cc1 (stereo not drawn) | 75 to 77 °C
33 | CS(=O)(=O)Nc1cc(F)ccc1C(=O)O | 205 to 207 °C
34 | Cc1ccccc1-c1cc(N)n(Cc2ccccc2)n1 | 139 to 141 °C
35 | Nc1ccccc1C(=O)NCC1CCCO1 (stereo not drawn) | 78 to 80 °C
36 | O=C(O)[C@@H]1CCCN1C(=O)Nc1ccc2c(c1)OCCO2 | 176 to 178 °C
37 | Cc1cc(Cl)n(-c2ccc(C#N)cc2)n1 | 103 to 105 °C
38 | NS(=O)(=O)C1CCCCC1 | 91 to 93 °C
39 | Nc1ccc(CNC(=O)c2ccc(C(F)(F)F)cc2)cc1 | 163 to 165 °C
40 | Nc1cc(S(=O)(=O)NC2CC2)ccc1Cl | 125 to 127 °C
41 | Cc1cc(C)nc(-n2[nH]c(C(=O)O)cc2=O)n1 | 246 to 248 °C
42 | Cc1c(NC(=O)CSc2ccccc2C(=O)O)c(=O)n(-c2ccccc2)n1C | 120 to 123 °C
43 | Cc1ccc(SC(C(=O)O)c2ccccc2)c(C)c1 (stereo not drawn) | 130 to 132 °C
44 | CC(Cl)c1nnc(-c2ccc([N+](=O)[O-])cc2)o1 (stereo not drawn) | 161 to 163 °C
45 | CC(C)C(NC(=O)COc1ccccc1)C(=O)O (stereo not drawn) | 165 to 167 °C
46 | Cc1ccc(Nc2snc(O)c2C#N)cc1 | 232 to 234 °C
47 | CC1CCCCC1N1C(=O)C=CC1=O (stereo not drawn) | 40 to 42 °C

More lines, now with the values ahead:

Row | melting point | Compound
48 | 310 to 312 °C | Cc1ncc(C(=O)O)c(=O)[nH]1
49 | 134 to 136 °C | Nc1nc2ccc(OCC(F)(F)F)cc2s1
50 | 76 to 78 °C | Cc1cccnc1C(=O)NN
51 | 229 to 231 °C | Cc1nccn1-c1cc(C(=O)O)c2ccccc2n1
52 | 193 to 195 °C | Nc1cnc(Cl)c(C(=O)O)c1
53 | 188 to 190 °C | O=c1cc(O)nc(S)n1-c1ccc(Cl)cc1
54 | 179 to 181 °C | O=c1c2sccc2ncn1CCO
55 | 229 to 231 °C | O=C(O)CCNC(=O)c1ccc2[nH]nnc2c1
56 | 293 to 295 °C | O=C(O)c1ccc(Br)cc1-n1cncn1
57 | 214 to 216 °C | O=C(Nc1sccc1C(=O)O)c1ccc2c(c1)CCC2
58 | 154 to 156 °C | COc1ccc(OCC(=O)O)c(C=O)c1
59 | 63 to 65 °C | O=C(O)CSCC(=O)Nc1cccc(Br)c1
60 | 59 to 61 °C | O=C1CSCc2c(F)cccc21
61 | 138 to 140 °C | ClCc1cn(-c2ccc(Cl)c(Cl)c2)nn1
62 | 335 to 337 °C | Cc1cc(=O)n2nc(N)sc2n1
63 | 87 to 89 °C | OCc1nc(-c2ccccc2)cs1
64 | 279 to 281 °C | Nc1ccc2c(c1)S(=O)(=O)NC2=O
65 | 268 to 270 °C | O=C1Nc2ccc(Br)cc2C1=NO
66 | 154 to 156 °C | O=C(O)c1nnn(-c2cccc(Br)c2)c1C(F)(F)F
67 | 188 to 190 °C | O=C(O)Cc1csc(-c2ccc3c(c2)OCCO3)n1
68 | 210 to 212 °C | CCn1nc(C(=O)O)c(=O)c2ccccc21
69 | 139 to 141 °C | O=C1CCCC(=O)N1c1ncc(Br)s1
70 | 149 to 151 °C | O=C(O)C1CC(=O)N(c2ccc(Cl)c(F)c2)C1 (stereo not drawn)
71 | 235 to 237 °C | Cc1nc2ccccc2n1CCN
72 | 96 to 98 °C | CC1(c2ccsc2)CC(=O)NC1=O (stereo not drawn)
73 | 129 to 131 °C | O=C(O)C=Cc1cccc(CO)c1
